From ChEMBL document CHEMBL5665443, “Enzyme Inhibitor Single Concentration assay results for EUbOPEN Chemogenomics Library” (2024)

Assays:
Conditions in all cases: Hit No
[1] = biological target: T1, Endonuclease III-like protein 1 (Homo sapiens) (UniProt P78549);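 further: enzyme assay tracking NTHL1 cutting and release of a quenched double-stranded DNA oligo substrate, read as fluorescence at 594 nm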
T1 sequence (whole entry): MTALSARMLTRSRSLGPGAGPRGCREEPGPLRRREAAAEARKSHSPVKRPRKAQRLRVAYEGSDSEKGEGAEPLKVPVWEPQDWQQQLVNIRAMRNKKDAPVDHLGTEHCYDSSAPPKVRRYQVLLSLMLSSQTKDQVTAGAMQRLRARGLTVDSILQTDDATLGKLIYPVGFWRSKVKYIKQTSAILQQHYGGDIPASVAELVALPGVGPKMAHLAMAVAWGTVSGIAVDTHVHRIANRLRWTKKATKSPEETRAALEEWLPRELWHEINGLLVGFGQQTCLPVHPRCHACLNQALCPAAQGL
Description: Inhibition of NTHL1 by quantifying inhibition of NTHL1-mediated cleavage and dissociation of quenched duplex DNA oligonucleotides, measured as fluorescence at 594 nm.

[2] = biological target: Methyl-CpG-binding domain protein 4 (Homo sapiens) (UniProt O95243);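 further: MBD4 activity read as fluorescence at 594 nm from cleavage and release of a quenched duplex DNA oligonucleotide, with APE1 coupled to incise the strand and raise turnover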
Sequence of Methyl-CpG-binding domain protein 4 (Homo sapiens) (O95243 whole entry, the tested form may be a part): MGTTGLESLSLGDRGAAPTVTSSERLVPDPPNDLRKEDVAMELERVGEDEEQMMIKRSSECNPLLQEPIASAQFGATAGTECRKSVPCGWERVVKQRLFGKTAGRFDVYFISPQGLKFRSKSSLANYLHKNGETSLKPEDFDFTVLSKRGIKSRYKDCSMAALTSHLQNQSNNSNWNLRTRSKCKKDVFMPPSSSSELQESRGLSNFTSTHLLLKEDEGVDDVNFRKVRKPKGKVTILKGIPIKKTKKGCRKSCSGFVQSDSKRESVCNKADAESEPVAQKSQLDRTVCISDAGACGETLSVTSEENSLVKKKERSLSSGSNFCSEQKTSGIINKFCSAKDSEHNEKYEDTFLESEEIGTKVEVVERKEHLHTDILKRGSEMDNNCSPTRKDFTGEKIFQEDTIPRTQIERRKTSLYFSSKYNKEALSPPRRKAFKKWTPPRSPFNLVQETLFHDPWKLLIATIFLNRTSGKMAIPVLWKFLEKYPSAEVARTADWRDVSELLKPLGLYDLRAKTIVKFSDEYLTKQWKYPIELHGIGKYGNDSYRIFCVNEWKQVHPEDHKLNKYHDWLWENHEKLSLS
Description: Inhibition of MBD4 by quantifying inhibition of MBD4-mediated cleavage and dissociation of quenched duplex DNA oligonucleotides, measured as fluorescence at 594 nm. To generate a functional strand incision and increase turn-over this assay is coupled to APE1.

[3] = biological target: T2, Adenine DNA glycosylase (Homo sapiens) (UniProt Q9UIF7);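 further: human MUTYH activity read as 594 nm fluorescence from cleavage and release of a quenched DNA duplex, coupled with APE1 for strand incision, lower signal meaning inhibition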
T2 sequence (whole entry): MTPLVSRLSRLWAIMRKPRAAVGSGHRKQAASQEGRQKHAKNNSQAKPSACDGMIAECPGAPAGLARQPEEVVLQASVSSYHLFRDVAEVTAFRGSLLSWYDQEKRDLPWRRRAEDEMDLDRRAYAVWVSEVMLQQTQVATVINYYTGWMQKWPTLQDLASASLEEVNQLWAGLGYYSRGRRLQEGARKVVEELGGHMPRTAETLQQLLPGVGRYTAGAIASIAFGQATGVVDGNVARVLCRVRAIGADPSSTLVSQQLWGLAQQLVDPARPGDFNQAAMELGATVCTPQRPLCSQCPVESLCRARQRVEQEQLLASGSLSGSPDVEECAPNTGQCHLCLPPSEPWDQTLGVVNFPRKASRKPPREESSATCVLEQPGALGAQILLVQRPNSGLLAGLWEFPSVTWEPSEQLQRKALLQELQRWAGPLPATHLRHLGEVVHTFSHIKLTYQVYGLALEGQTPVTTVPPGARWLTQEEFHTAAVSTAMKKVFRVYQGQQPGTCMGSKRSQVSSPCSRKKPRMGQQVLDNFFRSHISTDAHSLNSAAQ
Description: Inhibition of MUTYH by quantifying inhibition of MUTYH-mediated cleavage and dissociation of quenched duplex DNA oligonucleotides, measured as fluorescence at 594 nm. To generate a functional strand incision and increase turn-over this assay is coupled to APE1.

[4] = biological target: T3, Single-strand selective monofunctional uracil DNA glycosylase (Homo sapiens) (UniProt Q53HV7);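 further: enzymatic SMUG1 assay coupled with APE1, reading fluorescence at 594 nm released when a quenched double-stranded DNA oligonucleotide substrate is cleaved and separated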
T3 sequence (whole entry): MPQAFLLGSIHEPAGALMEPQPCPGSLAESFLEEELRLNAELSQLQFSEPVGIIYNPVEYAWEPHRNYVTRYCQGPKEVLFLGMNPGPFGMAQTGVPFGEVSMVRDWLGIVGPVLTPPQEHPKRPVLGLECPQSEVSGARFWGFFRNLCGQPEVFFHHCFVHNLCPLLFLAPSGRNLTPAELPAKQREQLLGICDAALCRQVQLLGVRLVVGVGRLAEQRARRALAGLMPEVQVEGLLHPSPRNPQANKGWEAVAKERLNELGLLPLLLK
Description: Inhibition of SMUG1 by quantifying inhibition of SMUG1-mediated cleavage and dissociation of quenched duplex DNA oligonucleotides, measured as fluorescence at 594 nm. To generate a functional strand incision and increase turn-over this assay is coupled to APE1.

[5] = biological target: Endonuclease 8-like 1 (Homo sapiens) (UniProt Q96FI4);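 further: fluorescence at 594 nm from quenched duplex DNA oligonucleotides released by NEIL1 cleavage and strand separation, reported as reduction of this enzyme activity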
Sequence of Endonuclease 8-like 1 (Homo sapiens) (Q96FI4 whole entry): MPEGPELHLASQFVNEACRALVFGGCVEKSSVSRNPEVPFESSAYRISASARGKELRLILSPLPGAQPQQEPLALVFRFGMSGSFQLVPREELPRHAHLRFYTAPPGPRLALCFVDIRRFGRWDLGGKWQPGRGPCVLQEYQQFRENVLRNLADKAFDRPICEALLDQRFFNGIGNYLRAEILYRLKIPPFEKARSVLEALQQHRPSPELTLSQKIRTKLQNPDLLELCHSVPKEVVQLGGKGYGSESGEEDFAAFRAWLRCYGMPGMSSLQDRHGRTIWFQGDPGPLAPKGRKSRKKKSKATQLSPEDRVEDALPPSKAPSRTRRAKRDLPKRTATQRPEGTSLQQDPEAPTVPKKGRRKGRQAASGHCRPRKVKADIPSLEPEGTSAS
Description: Inhibition of NEIL1 by quantifying inhibition of NEIL1-mediated cleavage and dissociation of quenched duplex DNA oligonucleotides, measured as fluorescence at 594 nm.

[6] = biological target: Uracil-DNA glycosylase (Homo sapiens) (UniProt P13051);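 further: UNG excision on a quenched double-stranded DNA oligo probe, with APE1 added for strand incision and turnover, read as fluorescence at 594 nm as strands separate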
Sequence of Uracil-DNA glycosylase (Homo sapiens) (P13051 whole entry): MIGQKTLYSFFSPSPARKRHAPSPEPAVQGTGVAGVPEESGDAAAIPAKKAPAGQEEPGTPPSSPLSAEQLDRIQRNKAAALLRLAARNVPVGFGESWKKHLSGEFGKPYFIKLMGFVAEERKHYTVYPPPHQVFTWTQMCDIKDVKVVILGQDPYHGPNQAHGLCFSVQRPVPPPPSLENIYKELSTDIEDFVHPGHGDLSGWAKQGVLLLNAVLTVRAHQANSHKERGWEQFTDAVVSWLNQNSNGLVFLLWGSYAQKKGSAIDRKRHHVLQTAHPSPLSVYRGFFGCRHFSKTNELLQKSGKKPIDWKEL
Description: Inhibition of UNG by quantifying inhibition of UNG-mediated cleavage and dissociation of quenched duplex DNA oligonucleotides, measured as fluorescence at 594 nm. To generate a functional strand incision and increase turn-over this assay is coupled to APE1.

[7] = biological target: G/T mismatch-specific thymine DNA glycosylase (Homo sapiens) (UniProt Q13569);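 further: human TDG cleavage of quenched duplex DNA oligonucleotides coupled to APE1, strand release read as fluorescence at 594 nm, inhibition of TDG activity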
Sequence of G/T mismatch-specific thymine DNA glycosylase (Homo sapiens) (Q13569 whole entry): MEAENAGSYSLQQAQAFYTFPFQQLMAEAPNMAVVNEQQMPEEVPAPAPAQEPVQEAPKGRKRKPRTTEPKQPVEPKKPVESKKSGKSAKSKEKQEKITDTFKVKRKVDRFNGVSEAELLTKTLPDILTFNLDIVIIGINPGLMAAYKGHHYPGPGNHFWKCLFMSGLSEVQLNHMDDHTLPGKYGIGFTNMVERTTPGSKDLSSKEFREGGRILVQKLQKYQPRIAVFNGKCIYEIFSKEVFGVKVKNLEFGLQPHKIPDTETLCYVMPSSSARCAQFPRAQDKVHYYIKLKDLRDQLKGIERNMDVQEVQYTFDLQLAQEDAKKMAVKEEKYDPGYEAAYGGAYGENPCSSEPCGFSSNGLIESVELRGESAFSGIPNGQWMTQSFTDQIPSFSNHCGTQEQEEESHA
Description: Inhibition of TDG by quantifying inhibition of TDG-mediated cleavage and dissociation of quenched duplex DNA oligonucleotides, measured as fluorescence at 594 nm. To generate a functional strand incision and increase turn-over this assay is coupled to APE1.

[8] = biological target: T4, Endonuclease 8-like 2 (Homo sapiens) (UniProt Q969S2);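 further: fluorescence at 594 nm reports NEIL2 cutting and release of a quenched double-stranded DNA oligo substrate, reduced signal read as inhibition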
T4 sequence (whole entry): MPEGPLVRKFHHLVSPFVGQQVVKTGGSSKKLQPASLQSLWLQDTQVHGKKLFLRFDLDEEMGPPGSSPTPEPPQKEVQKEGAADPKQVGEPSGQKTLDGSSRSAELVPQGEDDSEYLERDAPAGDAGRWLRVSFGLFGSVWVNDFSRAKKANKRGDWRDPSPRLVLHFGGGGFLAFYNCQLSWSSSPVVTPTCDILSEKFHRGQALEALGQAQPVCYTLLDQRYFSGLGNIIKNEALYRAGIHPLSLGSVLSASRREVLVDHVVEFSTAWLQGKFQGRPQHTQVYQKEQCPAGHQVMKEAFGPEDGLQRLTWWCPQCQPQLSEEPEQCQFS
Description: Inhibition of NEIL2 by quantifying inhibition of NEIL2-mediated cleavage and dissociation of quenched duplex DNA oligonucleotides, measured as fluorescence at 594 nm.

[9] = biological target: N-glycosylase/DNA lyase (Homo sapiens) (UniProt O15527);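 further: OGG1 cleavage of a quenched duplex DNA oligonucleotide, coupled to APE1 for strand incision, read as fluorescence at 594 nm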
Sequence of N-glycosylase/DNA lyase (Homo sapiens) (O15527 whole entry): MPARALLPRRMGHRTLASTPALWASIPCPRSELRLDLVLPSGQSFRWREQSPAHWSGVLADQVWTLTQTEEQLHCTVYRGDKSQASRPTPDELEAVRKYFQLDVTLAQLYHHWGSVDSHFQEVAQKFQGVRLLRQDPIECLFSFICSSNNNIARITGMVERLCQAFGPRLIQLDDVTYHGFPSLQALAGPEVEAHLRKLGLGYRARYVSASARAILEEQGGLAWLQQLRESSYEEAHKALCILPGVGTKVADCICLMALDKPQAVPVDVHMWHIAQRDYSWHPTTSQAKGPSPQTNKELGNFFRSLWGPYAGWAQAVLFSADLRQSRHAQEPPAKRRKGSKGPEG
Description: Inhibition of OGG1 by quantifying inhibition of OGG1-mediated cleavage and dissociation of quenched duplex DNA oligonucleotides, measured as fluorescence at 594 nm. To generate a functional strand incision and increase turn-over this assay is coupled to APE1.

Structure (SMILES) | inhibition ([1]; Compound Concentration 10.0 uM) [%] | inhibition ([2]; Compound Concentration 10.0 uM) [%] | inhibition ([3]; Compound Concentration 10.0 uM) [%] | inhibition ([4]; Compound Concentration 10.0 uM) [%] | inhibition ([5]; Compound Concentration 10.0 uM) [%] | inhibition ([6]; Compound Concentration 10.0 uM) [%] | inhibition ([7]; Compound Concentration 10.0 uM) [%] | inhibition ([8]; Compound Concentration 10.0 uM) [%] | inhibition ([9]; Compound Concentration 10.0 uM) [%] | inhibition ([1]; Compound Concentration 1.0 uM) [%] | inhibition ([2]; Compound Concentration 1.0 uM) [%] | inhibition ([3]; Compound Concentration 1.0 uM) [%] | inhibition ([4]; Compound Concentration 1.0 uM) [%] | inhibition ([5]; Compound Concentration 1.0 uM) [%] | inhibition ([6]; Compound Concentration 1.0 uM) [%] | inhibition ([7]; Compound Concentration 1.0 uM) [%] | inhibition ([8]; Compound Concentration 1.0 uM) [%] | inhibition ([9]; Compound Concentration 1.0 uM) [%]
O=C1c2ccc(Nc3ccc(F)cc3F)cc2CCc2ccc(OC[C@H](O)CO)cc21 | 0.775 | 32.4 | -4.85 | 11.5 | -0.672 | 8.79 | 39.4 | 4.92 | -9.94 |  |  |  |  |  |  |  |  | 
C[C@@]1(Cc2ccc(C#N)cc2)C(=O)N(c2cc(Cl)cc(Cl)c2)c2ncc(C(=O)NC3(c4nc(C5CCC5)no4)CC3)n21 | -5.89 | 57.2 | -3.98 | 14.7 | -6.2 | 3.21 | 98.8 | -9.93 | 13.1 |  |  |  |  |  |  |  |  | 
CCc1ccccc1C(=O)Nc1n[nH]c2c(C)c(F)c(C3C(C#N)=C(C)N(C)C(C)=C3C#N)cc12 | -1.95 | 44.9 | 2.35 | 29.9 | -6.65 | 9.1 | 43.7 | 5.63 | 11.1 | 13.3 | 55 | 6.2 | 13.1 | 0.0055 | 1.06 | 36.9 |  | 
CC(C)c1cc(Oc2c(Cl)cc(-n3nc(C#N)c(=O)[nH]c3=O)cc2Cl)n[nH]c1=O | 7.26 | 53.3 | 14 | 5.92 | -7.26 | -0.0293 | 50.8 | 7.67 | 28.8 |  |  |  |  |  |  |  |  | 
C=CC(=O)Nc1ccc2[nH]c(=O)n(C3CCN(Cc4ccc(-c5nc6cc[nH]c(=O)c6cc5-c5ccccc5)cc4)CC3)c2c1 | 2.5 | 24 | 23.4 | 25.8 | 3.12 | 4.17 | 49 | 4.67 | 49.4 |  |  |  |  |  |  |  |  | 
N#Cc1cc(F)cc(-c2nc(-c3ccc(F)cn3)no2)c1 | -9.34 | 0.258 | -0.521 | -0.692 | -4.29 | -3.92 | 2.89 | -9.52 | -9.37 |  |  |  |  |  |  |  |  | 
CC1(C)CCC(C)(C)c2cc(C(=O)Nc3ccc(C(=O)O)cc3)ccc21 | 2.66 | 58.8 | 14.4 | 16.9 | -3.17 | 5.57 | 100 | -6.36 | 27.8 |  |  |  |  |  |  |  |  | 
Cc1cc([C@@H](C)Nc2ccccc2C(=O)O)c2nc(N3CCOCC3)cc(=O)n2c1 | -1.31 | -6.46 | 10.5 | 20.9 | 0.798 | 3.71 | 50.8 | 2.93 | 12 |  |  |  |  |  |  |  |  | 
Cc1cc(Nc2nccc(C)n2)cc(-c2cnc([C@@]3(O)CC[C@H](C(=O)O)C(C)(C)C3)s2)c1 |  |  |  |  |  |  |  |  |  | -4.56 | 25.6 | 3.53 | 13.6 | -7.58 | 2.21 | 40.8 | -5.61 | 9.85
CCC[C@@H]1CNCc2c1[nH]c(=O)c(C#N)c2N1CCC2(CC1)CC2 | -9.18 | 65.3 | 7.93 | 17.4 | -1.35 | 2.58 | 98.8 | -5.59 | 27.9 |  |  |  |  |  |  |  |  | 
CC(C)C[C@H](NC(=O)c1cc2ccccc2s1)C(=O)N1CCN(C(=O)[C@H](CO)NS(=O)(=O)c2ccc(Cl)cc2Cl)CC1 | 13.8 | -8.27 | 4.25 | 17.8 | 7.86 | -1.45 | -2.2 | -3.66 | -7.14 |  |  |  |  |  |  |  |  | 
CC[C@@H](Nc1c(C#N)c(-c2ccc(-c3cccc(C)c3F)cc2)nc2cnccc12)C(=O)O | 2.05 | 42.6 | 24.5 | 12.3 | -1.4 | 2.5 | 49.5 | 3.25 | 31.6 |  |  |  |  |  |  |  |  | 
CC(C)OC(=O)C1=CN(C(=O)c2ccc(F)c(F)c2)CC(C)(C)c2c1[nH]c1ccccc21 | -1.95 | 66.8 | 4.92 | 27.6 | -3.02 | 5.72 | 46.7 | 3.08 | 18.3 |  |  |  |  |  |  |  |  | 
CN(C(=O)c1cnn2cccnc12)c1cc2c(cc1N1CCOCC1)C(=O)N(C[C@@H](F)C(C)(C)O)C2 | -9.94 | 23.6 | 2.33 | 9.25 | 6.13 | 0.621 | 39.8 | -1.57 | -1.31 |  |  |  |  |  |  |  |  | 
N#CC1(c2ccccn2)CCN(Cc2cc(C(=O)N3CCCC3)c(=O)n3ccccc23)CC1 | 2 | 68.6 | -9.61 | 16.3 | -0.745 | 2.35 | 39.8 | 4.87 | 13.7 |  |  |  |  |  |  |  |  | 
C=C(C)[C@H]1CN[C@H](C(=O)O)[C@H]1CC(=O)O | -1.08 | 2.41 | 8.87 | -0.636 | -4.88 | -5.09 | -2.38 | -3.66 | -6.14 |  |  |  |  |  |  |  |  | 
Cc1ccccc1Oc1cc(-n2c(=O)cc(C(F)(F)F)[nH]c2=O)c2ccccc2c1Cl | -1.29 | 68.2 | 0.715 | 29.1 | 7.74 | -2.65 | 54.4 | -1.25 | 50.6 |  |  |  |  |  |  |  |  | 
O[C@]1(C(F)(F)F)CCCC[C@H]1Nc1ccc(F)cc1 |  |  |  |  |  |  |  |  |  | 4.63 | 54.7 | -4.37 | 15.6 | 3.35 | 2.12 | 46.6 | 6.91 | -4.39
COc1ncc(-c2ccc3nccc(-c4ccnnc4)c3c2)cc1NS(=O)(=O)c1ccc(F)cc1F |  |  |  |  |  |  |  |  |  | 9.15 | 24 | 13.2 | -0.754 | -9.77 | -3.82 | 51.7 | 15.6 | 1.04
CCNC(=O)N1CCCN(c2ccc(C(=O)NCCc3ccc(Cl)cc3Cl)cc2NC(=O)c2cccc(Cl)c2)CC1 | -5.21 | -1.37 | 5.24 | 5.69 | 3.27 | 3.51 | 3.38 | 3.98 | -8.02 |  |  |  |  |  |  |  |  | 
CC1=C(C#N)C(c2ccc3c(c2)c(NC(=O)c2ccccc2C)nn3C)C(C#N)=C(C)N1 | -3.26 | 65.1 | 15.1 | 24.1 | -2.11 | 6.97 | 58.9 | 0.0213 | 7.85 | 2.88 |  | -2.97 | 16.1 | 1.19 | 1.91 | 29.4 |  | 
